Data taken from patent US10662210B2, “Compositions and methods comprising osmium for the treatment of cancers” (Massachusetts Institute of Technology, priority 2014, dated 2020).

Columns and labels:
Assay type in all cases: cell-based, human
[1] = test system: p53, p21 and BAX in A2780 cells; experiment: Immunoblotting analysis, p53 pathway; details: for p53 expression: vs untreated cells
Experimental: Having established the intracellular targets of 2 and 4, the role of p53, a cell cycle and apoptosis regulator, in the cellular responses evoked was investigated. […] Therefore, p53 played a fundamental role in coordinating the cellular response to 2-induced DNA damage. […] (FIG. 13). […] To relate p53 to potency, cytotoxicity studies were conducted in the presence of p53 inhibitors pifithrin-α and pifithrin-μ. (both 10 μM). […] The IC50 values of compound 2 in the absence and presence of p53 inhibitor pifithrin-μ after 72 hours incubation was about 2 μM and about 30 μM, respectively.
A2780 cells (5×10^5 cells) were incubated with the osmium complexes (concentrations, μM) for 72 h at 37° C. Cells were washed with PBS, scraped into SDS-PAGE loading buffer (64 mM Tris-HCl (pH6.8)/9.6% glycerol/2% SDS/5% β-mercaptoethanol/0.01% Bromophenol Blue), and incubated at 95° C. for 10 min. Whole cell lysates were resolved by 4-20% sodium dodecylsulphate polyacylamide gel electrophoresis (SDS-PAGE; 200 V for 25 min) followed by electro transfer to polyvinylidene difluoride membrane, PVDF (350 mA for 1 h). Membranes were blocked in 5% (w/v) non-fat milk in PBST (PBS/0.1% Tween 20) and incubated with the appropriate primary antibodies (Cell Signalling Technology and Santa Cruz). After incubation with horseradish peroxidase-conjugated secondary antibodies (Cell Signalling Technology), immune complexes were detected with the ECL detection reagent (BioRad) and analyzed using an Alpha Innotech ChemiImager™ 5500 fitted with a chemiluminescence filter.

A2780 cells = experiment: DNA flow cytometric cell cycle analysis
Experimental: After 24 hours untreated A2780 cells had the following distribution: G1: 73.4%, S: 21.7%, and G2/M: 5.0%. After 48 hours untreated A2780 cells had the following distribution: G1: 75.1%, S: 19.6%, and G2/M: 5.2%. After 72 hours untreated had the following distribution: G1: 73.6%, S: 21.0%, and G2/M: 5.4%. After 24 hours A2780 cells treated with 2 had the following distribution: G1: 61.0%, S: 27.9%, and G2/M: 11.1%. After 48 hours A2780 cells treated with 2: G1: 61.8%, S: 19.0%, and G2/M: 19.1%. After 72 hours A2780 cells treated with 2 had the following distribution: G1: 57.3%, S: 23.3%, and G2/M: 19.4%. This property may be related to upregulation of p53 and phosphorylation of CHK1. Complex 4 induced relatively small perturbations to the cell cycle; changes in phase populations remained <5% even after a 72-hours incubation. After 24 hours untreated A2780 cells had the following distribution: G1: 73.7%, S: 23.1%, and G2/M: 3.3%. After 48 hours untreated A2780 cells had the following distribution: G1: 73.4%, S: 21.7%, and G2/M: 4.9%. After 72 hours untreated A2780 cells had the following distribution: G1: 79.7%, S: 19.4%, and G2/M: 0.9%. After 24 hours A2780 cells treated with 4 had the following distribution: G1: 70.9%, S: 24.8%, and G2/M: 4.6%. After 48 hours A2780 cells treated with 4 had the following distribution: G1: 71.9%, S: 18.3%, and G2/M: 9.8%. After 72 hours A2780 cells treated with 4 had the following distribution: G1: 70.3%, S: 24.4%, and G2/M: 5.3%.
In order to monitor the cell cycle, flow cytometry studies were carried out. A2780 cells were incubated with and without the test compounds for 24-72 h at 37° C. Studies on A549 cells under normal and starved (proliferating and non-proliferating) conditions were also carried out. Cells were harvested from adherent cultures by trypsinization. Following centrifugation at 1000 rpm for 5 min, cells were washed with PBS and then fixed with 70% ethanol in PBS. Fixed cells were collected by centrifugation at 2500 rpm for 3 min, washed with PBS and centrifuged as before. Cellular pellets were re-suspended in 50 μg/ml propidium iodide (Sigma) in PBS for nucleic acids staining and treated with 100 μg/ml RNaseA (Sigma). DNA content was measured on a FACSCalibur-HTS flow cytometer (BD Biosciences) using laser excitation at 488 nm and 20,000 events per sample were acquired. Cell cycle profiles were analysed using the ModFit software. For the apoptosis experiments, the Annexin V-FITC Early Apoptosis Detection Kit was used. The manufacture's protocol was followed to carry out this experiment. Briefly, untreated and treated cells (1×10^5) were suspended in 1× annexin binding buffer (96 μL) (10 mM HEPES, 140 mM NaCl, 2.5 mM CaCl2), pH 7.4), then 1 μL FITC annexin V and 12.5 μL PI (10 μg/mL) were added to each sample and incubated on ice for 15 min. After which more binding buffer (150 μL) was added while gently mixing. The samples were kept on ice prior to being read on the FACSCalibur-HTS flow cytometer (BD Biosciences) and 20,000 events per sample were acquired. Cell populations were analysed using the FlowJo software (Tree Star).

[2] = test system: cleaved caspase 3, 7, 9 and PARP in A2780 cells; experiment: Immunoblotting analysis, apoptosis pathway; details: 72 h
Experimental: To have a more complete understanding of the cellular response induced by 2 or 4, their mode of cell killing was evaluated. Many clinically approved cancer drugs exert their cytotoxic effects through apoptosis, and so the features related to this pathway were monitored. Apoptotic cells underwent morphological changes that lead to cell membrane disorientation. […] Cells can undergo other forms of cell death such as necrosis and autophagy. To probe these pathways, cytotoxicity assays were carried out in the presence of […], chloroquine, and IM-54, respectively. Because both chloroquine and IM-54 had little effect on the potency of either of the osmium complexes, necrosis and autophagy were ruled out as possible death pathways. […] On the other hand, 4 initiated ER stress, culminating in p53 independent, caspase directed apoptosis (FIG. 4).
A2780 cells (5×10^5 cells) were incubated with the osmium complexes (concentrations, μM) for 72 h at 37° C. […] After incubation with horseradish peroxidase-conjugated secondary antibodies (Cell Signalling Technology), immune complexes were detected with the ECL detection reagent (BioRad) and analyzed using an Alpha Innotech ChemiImager™ 5500 fitted with a chemiluminescence filter.

Compound	p21 and BAX expression [1]	p53 expression [1]	cell cycle distribution G1 (A2780 cells; 24 hours)	cell cycle distribution G2/M (A2780 cells; 24 hours)	cell cycle distribution S (A2780 cells; 24 hours)	cell cycle distribution G1 (A2780 cells; 48 hours)	cell cycle distribution G2/M (A2780 cells; 48 hours)	cell cycle distribution S (A2780 cells; 48 hours)	cell cycle distribution G1 (A2780 cells; 72 hours)	cell cycle distribution G2/M (A2780 cells; 72 hours)	cell cycle distribution S (A2780 cells; 72 hours)	changes in phase populations (A2780 cells; up to 72-hours incubation)	expression of apoptosis positive proteins [2]	increase in G2/M population (A2780 cells; 72 h incubation)
[N]#[Os]1([Cl])([Cl])([Cl])[N]2C=CC(c3ccccc3)=c3ccc4c(c32)[N]1C=CC=4c1ccccc1 [Complex 4, OsN(4,7-diphenyl-1,10-phenanthroline)Cl3]	remained fairly constant	did not increase markedly	70.9%	4.6%	24.8%	71.9%	9.8%	18.3%	70.3%	5.3%	24.4%	< 5%	expressed apoptosis positive proteins, cleaved caspase 3, 7, 9, and poly ADP ribose polymerase (PARP)	–
[N]#[Os]1([Cl])([Cl])([Cl])[N]2C=CC=c3ccc4c(c32)[N]1C=CC=4 [Complex 2, OsN(1,10-phenanthroline)Cl3]	dose-dependent increase	higher p53 expression	61.0%	11.1%	27.9%	61.8%	19.1%	19.0%	57.3%	19.4%	23.3%	–	expressed apoptosis positive proteins, cleaved caspase 3, 7, 9, and poly ADP ribose polymerase (PARP)	~3 fold
